Assay results reported in patent EP3008041B1, “3-CARBAMOYL-1-METHYL[…], PROCESS FOR ITS PREPARATION AND ITS USE” (Uniwersytet Jagiellonski, priority 2013, dated 2014).
Like-named read-outs stand apart in the source and are kept apart here.

Legend:
[1] = pharmacokinetics of MNA in rat plasma after single intravenous administration; format: in vivo, rats; details: 100 mg/kg
Experimental: (§1) A method using high performance liquid chromatography combined with tandem mass spectrometry (LC/ESI-MS/MS) was developed and validated to determine concentrations of 1-methylnicotinamide (MNA) in rat plasma. […] The pharmacokinetic parameters were determined by a non-compartmental model using Phoenix WinNonlin software (Pharsight, Sannyvale, CA, USA).

[2] = pharmacokinetics of MNA in rat plasma after single intragastric administration; format: in vivo, rats; details: 100 mg/kg; for AUC0→∞ / F / t0.5 / Cmax / MRT / tmax: MNA in rat plasma, single intragastric administration
Experimental: as §1

[3] = tested on: plasma coagulation system
Experimental: Coagulation parameters: prothrombin time (PT), activated partial thromboplastin time (aPTT), fibrinogen concentration by Caluss and the prothrombin time percentage ratio (Quick index) were assessed in frozen plasma (-80°C) using a Caog-Chrom 3003 Bio-ksel Grudzi ? dz device.

[4] = Experimental: The complete blood count was assessed approximately 2 minutes after collection in fresh citrated blood using an automatic Horiba ABC Vet device. The following parameters were assessed: white blood cell count (WBC), red blood cell count (RBC), haemoglobin (HGB), haematocrit (HCT), mean corpuscular volume (MCV), mean corpuscular haemoglobin (MCH), mean corpuscular haemoglobin concentration (MCHC) and platelet count (PLT).
platelets = details: hypertensive rats after arterial thrombosis, 3 days per os twice a day (FIG. 2)
Experimental: The blood was diluted with 0.9% NaCl at a ratio of 1:1 and stirred in an aggregation cuvette at 1200 rpm. Samples of the stirred blood were collected after 20, 40 and 60 min and at "0" time and mixed with a cold solution of ASA (final concentration: 500 µM) at a ratio of 1:1. In these samples, TxB2 was determined using the ELISA assay, according to the manual provided by the manufacturer of the reagent kit.

[5] = TG technique under a nitrogen atmosphere
Experimental: Thermal stability was determined using the TG technique under a nitrogen atmosphere (with the use of the Mettler Toledo Star TGA/DSC 1 device).

normotensive rats = details: 30 mg/kg i.v., single dose 10 min before induction of thrombosis
Experimental: The normotensive and hypertensive rats were then anesthetised with pentorbital (40 mg/kg, i.p.). After removing the skin in the neck region, an approximately 0.5 cm long section of the left common carotid artery was isolated. To avoid haemorrhaging, the isolation was performed by tearing the surrounding tissues of the artery without the use of sharp instruments. The method of arterial thrombosis (according to Schumacher et al., 1996) with own modification (Kramkowski et al., 2012) involves damage to the endothelium isolated from a section of the artery by electric current (1 mA, 5-15 V, 10 min.). The anode is a stainless steel wire with a bent hook-shaped tip placed in a holder to remain stable during the experiment. Its tip was placed under the artery. A piece of parafilm was placed under the artery to keep it isolated. The cathode was a needle inserted subcutaneously in the hind limb region. Once the stimulation is completed, the formation of thrombus lasts 45 minutes. After this time, the artery was ligated at both sides of the thrombus, and the damaged fragment containing the thrombus was excised. The thrombus was quantitatively extracted from the artery and transferred to a previously tared microscope cover slip. The thrombi were allowed to dry (at room temperature and average humidity) and weighed not earlier than after 24 hours.

[6] = hypertensive (2K1C) rats
fibrin = details: hypertensive (2K1C) rats, 30 mg/kg i.v.
Remark: listed apart in the source
[7] = colour change from pale yellow to brown
[8] = hypertensive (2K1C) rats, 30 mg/kg i.v.
[9] = hypertensive (2K1C) rats, 30 mg/kg p.o.
[10] = normotensive rats, 10 mg/kg i.v.
[11] = normotensive rats, 30 mg/kg i.v.
[12] = normotensive rats, 100 mg/kg i.v.

C[n+]1cccc(C(N)=O)c1.[Cl-] [MNACl, 3-carbamoyl-1-methylpyridinium chloride, reference compound]
AUC0→∞ [1]: 4,362,231 ± 999,203 µg·min/L
Co [1]: 141,311 ± 56,500 µg/L
clearance [1]: 24 ± 5 mL/min/kg
t0.5 [1]: 162.5 ± 76.2 min
Vd ([1]; read-out: Vss): 1.06 ± 0.35 L/kg
MRT ([1]; rat, plasma, iv): ~43 min
AUC0→∞ [2]: 407,132 ± 164,906 µg·min/L
F [2]: 9.33%
t0.5 [2]: 247.4 ± 201 min
Cmax ([2]; po, read-out: Cmax): 2810 ng/mL
MRT ([2]; po, read-out: MRT (converted)): 359 min
tmax ([2]; po, read-out: tmax (converted)): 57.5 min

C[n+]1cccc(C(N)=O)c1.O=N[O-] [MNANO2, 3-carbamoyl-1-methylpyridinium nitrite]
APTT [3, 8]: 18.46 ± 0.81 s
Fglevel [3, 8]: 2.36 ± 0.13 ng/mL
PT [3, 8]: 17.40 ± 0.69 s
QUICK [3, 8]: 63.50±5.04
APTT [3, 9]: 17.79 ± 0.62 s
Fglevel [3, 9]: 2.61 ± 0.10 ng/mL
PT [3, 9]: 18.16 ± 0.47 s
QUICK [3, 9]: 62.00±4.01
APTT [3, 10]: 2.00 ± 2.68 s
Fglevel [3, 10]: 2.04 ± 0.09 ng/mL
PT [3, 10]: 18.23 ± 0.68 s
QUICK [3, 10]: 61.75±5.42
APTT [3, 11]: 25.67 ± 6.07 s
Fglevel [3, 11]: 2.15 ± 0.28 ng/mL
PT [3, 11]: 18.10 ± 0.81 s
QUICK [3, 11]: 63.00±7.57
APTT [3, 12]: 26.27 ± 2.89 s
Fglevel [3, 12]: 1.96 ± 0.11 ng/mL
PT [3, 12]: 19.17 ± 0.27 s
QUICK [3, 12]: 53.33±1.67
HCT [4, 8]: 38.35±0.49%
HGB [4, 8]: 12.27 ± 0.16 g/dL
MCH [4, 8]: 17.51±0.26 pg per cell
MCHC [4, 8]: 31.65 ± 0.21 g/dL
MCV [4, 8]: 54.86 ± 0.60 fL
PLT [4, 8]: 621±18 103/µL
RBC [4, 8]: 7.36±0.19 106/µL
WBC [4, 8]: 2.87±0.35 106/µL
HCT [4, 9]: 40.07±0.03%
HGB [4, 9]: 13.23 ± 0.24 g/dL
MCH [4, 9]: 18.77±0.71 pg per cell
MCHC [4, 9]: 32.97 ± 0.58 g/dL
MCV [4, 9]: 57.00 ± 1.53 fL
PLT [4, 9]: 630±12 103/µL
RBC [4, 9]: 7.05±0.18 106/µL
WBC [4, 9]: 2.93±0.26 106/µL
HCT [4, 10]: 30.03±1.26%
HGB [4, 10]: 12.15 ± 0.26 g/dL
MCH [4, 10]: 25.05±0.53 pg per cell
MCHC [4, 10]: 40.93 ± 1.00 g/dL
MCV [4, 10]: 61.25 ± 0.25 fL
PLT [4, 10]: 493±17 10^3/µl
RBC [4, 10]: 4.90±0.18 106/µl
WBC [4, 10]: 1.95±0.35 106/µl
HCT [4, 11]: 29.07±1.61%
HGB [4, 11]: 12.30 ± 0.26 g/dL
MCH [4, 11]: 25.73±0.92 pg per cell
MCHC [4, 11]: 42.40 ± 1.32 g/dL
MCV [4, 11]: 60.68 ± 0.33 fL
PLT [4, 11]: 489±23 10^3/µl
RBC [4, 11]: 4.80±0.29 106/µl
WBC [4, 11]: 1.77±0.43 106/µl
HCT [4, 12]: 33.33±1.31%
HGB [4, 12]: 12.67 ± 0.47 g/dL
MCH [4, 12]: 25.53±0.48 pg per cell
MCHC [4, 12]: 37.97 ± 0.18 g/dL
MCV [4, 12]: 62.00 ± 1.16 fL
PLT [4, 12]: 566±56 10^3/µl
RBC [4, 12]: 5.38±0.21 106/µl
WBC [4, 12]: 1.12±0.19 106/µl
thromboxane B2 (TxB2) production by platelets ex vivo (platelets): inhibition of thromboxane B2 (TxB2) production
AUC0→∞ [1]: 6,948,716 ± 1,810,664 µg·min/L
Cl [1]: 15 ± 3 mL/min/kg
Co [1]: 138,078 ± 33,208 µg/L
Vss [1]: 0.63 ± 0.1 L/kg
t0.5 [1]: 61.7 ± 19.6 min
AUC0→∞ [2]: 638,056 ± 167,631 µg·min/L
Cmax [2]: 8,881 ± 5,506 µg/L
F [2]: 9.18%
MRT [2]: 232 ± 38.3 min
t0.5 [2]: 178.4 ± 12.2 min
tmax [2]: 15 ± 10 min
concentration in rat plasma compared to MNACl administration ([2]; intragastric administration): three times higher
time of occurrence of the maximum concentration compared to MNACl administration ([2]; intragastric administration): four times shorter
Tonset [5]: 195 °C
Tonset5% [5]: 170 °C
Thrombus weight (normotensive rats): 0.78 ± 0.05 mg
Concentration of MNA in plasma after collecting thrombus ([6]; 30 mg/kg i.v.): 8.72 ± 4.90 µM
Concentration of MNA in plasma after collecting thrombus ([6]; 30 mg/kg p.o.): 5.76 ± 3.78 µM
Generation of fibrin (AUC) (fibrin): 186.00±10.23
solubility (DMSO): soluble
solubility (diethyl ether): not soluble
solubility (ethanol): soluble
solubility (hexane): not soluble
solubility (methanol): soluble
solubility (water): soluble
stability of aqueous solutions [7]: not stable over time
